Measurements reported in ChEMBL document CHEMBL4257522, “Synthesis and preliminary anti-inflammatory and anti-bacterial evaluation of some diflunisal aza-analogs” (Medchemcomm, 2018).
The source made the active and inactive calls. The calls are words filed in the database; no cut-off is given here.

Key:
[1] = tested on: Staphylococcus aureus; assay: Toxicity in Staphylococcus aureus ATCC 33592 up to 32 uM measured after 16 hrs; assay type: organism-based
[2] = tested on: Klebsiella pneumoniae; assay: Potentiation of methicillin-induced antibacterial activity against Klebsiella pneumoniae ATCC 13883 assessed as minimum modulatory concentration up to 32 uM measured after 16 hrs in presence of MIC/4 methicillin; assay type: functional; details: ATCC 13883, 16 h, read-out: MEC
[3] = tested on: Klebsiella pneumoniae; assay: Potentiation of geneticin-induced antibacterial activity against Klebsiella pneumoniae ATCC 13883 assessed as minimum modulatory concentration up to 32 uM measured after 16 hrs in presence of MIC/4 geneticin; assay type: functional; details: ATCC 13883, 16 h, read-out: MEC
[4] = tested on: Escherichia coli; assay: Potentiation of tetracycline-induced antibacterial activity against Escherichia coli ATCC 43894 assessed as minimum modulatory concentration up to 32 uM measured after 16 hrs in presence of MIC/4 tetracycline; assay type: functional; details: ATCC 43894, 16 h, read-out: MEC
[5] = tested on: Macrophage cell line; assay: Induction of TNFalpha production in human PBMC-differentiated macrophages after 24 hrs by ELISA; assay type: cell-based
[6] = tested on: Streptococcus pyogenes; assay: Potentiation of geneticin-induced antibacterial activity against Streptococcus pyogenes ATCC 14289 assessed as minimum modulatory concentration up to 32 uM measured after 16 hrs in presence of MIC/4 geneticin; assay type: functional; details: ATCC 14289, 16 h, read-out: MEC
[7] = tested on: Macrophage cell line; assay: Antiinflammatory activity in human PBMC-differentiated macrophages assessed as inhibition of LPS-induced prostaglandin production at 0.01 to 10 uM measured after 24 hrs by ELISA; assay type: functional, cell-based
[8] = tested on: Staphylococcus aureus; assay: Potentiation of geneticin-induced antibacterial activity against Staphylococcus aureus ATCC 33592 assessed as minimum modulatory concentration up to 32 uM measured after 16 hrs in presence of MIC/4 geneticin; assay type: functional; details: ATCC 33592, 16 h, read-out: MEC
[9] = tested on: Pseudomonas aeruginosa; assay: Potentiation of erythromycin-induced antibacterial activity against Pseudomonas aeruginosa ATCC BAA-2108 assessed as minimum modulatory concentration up to 32 uM measured after 16 hrs in presence of MIC/4 erythromycin; assay type: functional; details: ATCC BAA-2108, 16 h, read-out: MEC
[10] = tested on: Pseudomonas aeruginosa; assay: Potentiation of tetracycline-induced antibacterial activity against Pseudomonas aeruginosa ATCC BAA-2108 assessed as minimum modulatory concentration up to 32 uM measured after 16 hrs in presence of MIC/4 tetracycline; assay type: functional; details: ATCC BAA-2108, 16 h, read-out: MEC
[11] = tested on: Enterococcus faecium; assay: Potentiation of geneticin-induced antibacterial activity against Enterococcus faecium ATCC 700221 assessed as minimum modulatory concentration up to 32 uM measured after 16 hrs in presence of MIC/4 geneticin; assay type: functional; details: ATCC 700221, 16 h, read-out: MEC
[12] = tested on: Macrophage cell line; assay: Induction of prostaglandin production in human PBMC-differentiated macrophages after 24 hrs by ELISA; assay type: cell-based
[13] = tested on: Escherichia coli; assay: Potentiation of erythromycin-induced antibacterial activity against Escherichia coli ATCC 43894 assessed as minimum modulatory concentration up to 32 uM measured after 16 hrs in presence of MIC/4 erythromycin; assay type: functional; details: ATCC 43894, 16 h, read-out: MEC
[14] = tested on: Pseudomonas aeruginosa; assay: Potentiation of methicillin-induced antibacterial activity against Pseudomonas aeruginosa ATCC BAA-2108 assessed as minimum modulatory concentration up to 32 uM measured after 16 hrs in presence of MIC/4 methicillin; assay type: functional; details: ATCC BAA-2108, 16 h, read-out: MEC
[15] = tested on: Pseudomonas aeruginosa; assay: Potentiation of geneticin-induced antibacterial activity against Pseudomonas aeruginosa ATCC BAA-2108 assessed as minimum modulatory concentration up to 32 uM measured after 16 hrs in presence of MIC/4 geneticin; assay type: functional; details: ATCC BAA-2108, 16 h, read-out: MEC
[16] = tested on: Streptococcus pyogenes; assay: Potentiation of erythromycin-induced antibacterial activity against Streptococcus pyogenes ATCC 14289 assessed as minimum modulatory concentration up to 32 uM measured after 16 hrs in presence of MIC/4 erythromycin; assay type: functional; details: ATCC 14289, 16 h, read-out: MEC
[17] = tested on: Klebsiella pneumoniae; assay: Potentiation of erythromycin-induced antibacterial activity against Klebsiella pneumoniae ATCC 13883 assessed as minimum modulatory concentration up to 32 uM measured after 16 hrs in presence of MIC/4 erythromycin; assay type: functional; details: ATCC 13883, 16 h, read-out: MEC
[18] = tested on: Enterococcus faecium; assay: Toxicity in Enterococcus faecium ATCC 700221 up to 32 uM measured after 16 hrs; assay type: organism-based; details: in vitro
[19] = tested on: Klebsiella pneumoniae; assay: Potentiation of ciprofloxacin-induced antibacterial activity against Klebsiella pneumoniae ATCC 13883 assessed as minimum modulatory concentration up to 32 uM measured after 16 hrs in presence of MIC/4 ciprofloxacin; assay type: functional; details: ATCC 13883, 16 h, read-out: MEC
[20] = tested on: Staphylococcus aureus; assay: Potentiation of tetracycline-induced antibacterial activity against Staphylococcus aureus ATCC 33592 assessed as minimum modulatory concentration up to 32 uM measured after 16 hrs in presence of MIC/4 tetracycline; assay type: functional; details: ATCC 33592, 16 h, read-out: MEC
[21] = tested on: Staphylococcus aureus; assay: Potentiation of ciprofloxacin-induced antibacterial activity against Staphylococcus aureus ATCC 33592 assessed as minimum modulatory concentration up to 32 uM measured after 16 hrs in presence of MIC/4 ciprofloxacin; assay type: functional; details: ATCC 33592, 16 h, read-out: MEC
[22] = tested on: Enterococcus faecium; assay: Potentiation of erythromycin-induced antibacterial activity against Enterococcus faecium ATCC 700221 assessed as minimum modulatory concentration up to 32 uM measured after 16 hrs in presence of MIC/4 erythromycin; assay type: functional; details: ATCC 700221, 16 h, read-out: MEC
[23] = tested on: Streptococcus pyogenes; assay: Toxicity in Streptococcus pyogenes ATCC 14289 up to 32 uM measured after 16 hrs; assay type: organism-based
[24] = tested on: Streptococcus pyogenes; assay: Potentiation of tetracycline-induced antibacterial activity against Streptococcus pyogenes ATCC 14289 assessed as minimum modulatory concentration up to 32 uM measured after 16 hrs in presence of MIC/4 tetracycline; assay type: functional; details: ATCC 14289, 16 h, read-out: MEC
[25] = tested on: Staphylococcus aureus; assay: Potentiation of erythromycin-induced antibacterial activity against Staphylococcus aureus ATCC 33592 assessed as minimum modulatory concentration up to 32 uM measured after 16 hrs in presence of MIC/4 erythromycin; assay type: functional; details: ATCC 33592, 16 h, read-out: MEC
[26] = tested on: Escherichia coli; assay: Toxicity in Escherichia coli ATCC 43894 up to 32 uM measured after 16 hrs; assay type: organism-based
[27] = tested on: Escherichia coli; assay: Potentiation of methicillin-induced antibacterial activity against Escherichia coli ATCC 43894 assessed as minimum modulatory concentration up to 32 uM measured after 16 hrs in presence of MIC/4 methicillin; assay type: functional; details: ATCC 43894, 16 h, read-out: MEC
[28] = tested on: Staphylococcus aureus; assay: Potentiation of methicillin-induced antibacterial activity against Staphylococcus aureus ATCC 33592 assessed as minimum modulatory concentration up to 32 uM measured after 16 hrs in presence of MIC/4 methicillin; assay type: functional; details: ATCC 33592, 16 h, read-out: MEC
[29] = tested on: Enterococcus faecium; assay: Potentiation of tetracycline-induced antibacterial activity against Enterococcus faecium ATCC 700221 assessed as minimum modulatory concentration up to 32 uM measured after 16 hrs in presence of MIC/4 tetracycline; assay type: functional; details: ATCC 700221, 16 h, read-out: MEC
[30] = tested on: Streptococcus pyogenes; assay: Potentiation of ciprofloxacin-induced antibacterial activity against Streptococcus pyogenes ATCC 14289 assessed as minimum modulatory concentration up to 32 uM measured after 16 hrs in presence of MIC/4 ciprofloxacin; assay type: functional; details: ATCC 14289, 16 h, read-out: MEC
[31] = tested on: Klebsiella pneumoniae; assay: Potentiation of tetracycline-induced antibacterial activity against Klebsiella pneumoniae ATCC 13883 assessed as minimum modulatory concentration up to 32 uM measured after 16 hrs in presence of MIC/4 tetracycline; assay type: functional; details: ATCC 13883, 16 h, read-out: MEC
[32] = tested on: Klebsiella pneumoniae; assay: Toxicity in Klebsiella pneumoniae ATCC 13883 up to 32 uM measured after 16 hrs; assay type: organism-based

SMILES	Activity [1]	minimal effective concentration [2]	minimal effective concentration [3]	minimal effective concentration [4]	Activity [5]	minimal effective concentration [6]	inhibition [7]	minimal effective concentration [8]	minimal effective concentration [9]	minimal effective concentration [10]	minimal effective concentration [11]	Activity [12]	minimal effective concentration [13]	minimal effective concentration [14]	minimal effective concentration [15]	minimal effective concentration [16]	minimal effective concentration [17]	Activity [18]	minimal effective concentration [19]	minimal effective concentration [20]	further results
O=C(O)c1ccnc(-c2ccccc2)c1O	Non-Toxic	> 32 µM	> 32 µM	> 32 µM	Non-Toxic	2 µM	inactive	0.5 µM	4 µM	> 32 µM	4 µM	Non-Toxic	> 32 µM	8 µM	> 32 µM	2 µM	> 32 µM	Non-Toxic	> 32 µM	2 µM	minimal effective concentration [21]: 16 µM; minimal effective concentration [22]: 4 µM; Activity [23]: Non-Toxic; minimal effective concentration [24]: 1 µM; minimal effective concentration [25]: 0.25 µM; Activity [26]: Non-Toxic; minimal effective concentration [27]: > 32 µM; minimal effective concentration [28]: 0.25 µM; minimal effective concentration [29]: 2 µM; minimal effective concentration [30]: > 32 µM; minimal effective concentration [31]: > 32 µM; Activity [32]: Non-Toxic
O=C(O)c1cc(O)cnc1-c1ccccc1	Non-Toxic	> 32 µM	> 32 µM	> 32 µM	Non-Toxic	2 µM	inactive	16 µM	8 µM	> 32 µM	8 µM	Non-Toxic	> 32 µM	16 µM	> 32 µM	4 µM	> 32 µM	Non-Toxic	> 32 µM	1 µM	minimal effective concentration [21]: > 32 µM; minimal effective concentration [22]: 2 µM; Activity [23]: Non-Toxic; minimal effective concentration [24]: 2 µM; minimal effective concentration [25]: 4 µM; Activity [26]: Non-Toxic; minimal effective concentration [27]: > 32 µM; minimal effective concentration [28]: 8 µM; minimal effective concentration [29]: 4 µM; minimal effective concentration [30]: > 32 µM; minimal effective concentration [31]: > 32 µM; Activity [32]: Non-Toxic
O=C(O)c1cc(O)c(-c2ccccc2)nc1-c1ccccc1	Non-Toxic	> 32 µM	> 32 µM	> 32 µM	Non-Toxic	2 µM	inactive	8 µM	8 µM	> 32 µM	4 µM	Non-Toxic	> 32 µM	16 µM	> 32 µM	8 µM	> 32 µM	Non-Toxic	> 32 µM	8 µM	minimal effective concentration [21]: 16 µM; minimal effective concentration [22]: 2 µM; Activity [23]: Non-Toxic; minimal effective concentration [24]: 4 µM; minimal effective concentration [25]: 8 µM; Activity [26]: Non-Toxic; minimal effective concentration [27]: > 32 µM; minimal effective concentration [28]: 4 µM; minimal effective concentration [29]: 2 µM; minimal effective concentration [30]: > 32 µM; minimal effective concentration [31]: > 32 µM; Activity [32]: Non-Toxic
